# Reference: US20040259875A1, “Amine derivatives” (priority 2001, published 2004)
# Test system: not given
# Assay: not given
# Details: not given
row,SMILES,melting point
1,"CC(=O)Oc1ccc2c(Cl)cc(Cl)c(NC(=O)Nc3cccc(-c4ccccc4Cl)c3)c2c1 [Example 3-1, 5,7-Dichloro-8-({[(2′-chloro-1,1′-biphenyl-3-yl)amino]carbonyl}amino)-2-naphthyl acetate]",180 °C
2,CC(=O)Oc1ccc2c(Br)cc(Br)c(NC(=O)Nc3cccc(-c4ccccc4)c3)c2c1 [Example 3-2],235 °C (dec.)
3,CC(=O)Oc1ccc2c(Cl)cc(Cl)c(NC(=O)Nc3cccc(-c4ccc(C)c(Cl)c4)c3)c2c1 [Example 3-4],260 °C
4,CC(=O)Oc1ccc2c(Cl)cc(Cl)c(NC(=O)Nc3cccc(-c4ccc(Cl)c(F)c4)c3)c2c1 [Example 3-5],287 °C
5,CC(=O)Oc1ccc2c(Cl)cc(Cl)c(NC(=O)Nc3ccc4c(c3)C(=O)c3ccccc3-4)c2c1 [Example 3-10],213 °C (dec.)
6,CC(=O)Oc1ccc2c(Cl)cc(Cl)c(NC(=O)Nc3ccc(N4CCOCC4)c(Cl)c3)c2c1 [Example 3-13],206 °C
7,CC(=O)Oc1ccc2c(Cl)cc(Cl)c(NC(=O)Nc3cnc4ccccc4c3)c2c1 [Example 3-16],205 °C (dec.)
8,O=C(Nc1c(Cl)cc(Cl)c2ccc(O)cc12)NC1CCCc2ccccc21 (stereo not drawn) [Example 4-13],238 °C (dec.)
9,O=C(Nc1cccc2c1C(=O)c1ccccc1-2)Nc1c(Cl)cc(Cl)c2ccc(O)cc12 [Example 4-37],> 250 °C
10,"CC(C)(C)c1cc(NC(=O)Nc2c(Br)cc(Br)c3ccc(O)cc23)no1 [Example 5-1, N-(5-tert-Butyl-3-isoxazolyl)-N′-(2,4-dibromo-7-hydroxy-1-naphthyl)urea]",214.5 °C
11,CC1COC(c2cccc(NC(=O)Nc3c(Cl)ccc4ccc(O)cc34)c2)=N1 (stereo not drawn) [Example 5-2],162 °C (dec.)
12,"CC(=O)Nc1ccc2cccc(NC(=O)Nc3ccc(Cl)c(C(F)(F)F)c3)c2c1 [Example 9-1, N-{8-[({[4-Chloro-3-(trifluoromethyl)phenyl]amino}carbonyl)amino]-2-naphthyl}acetamide]",241 to 242 °C
13,"CS(=O)(=O)Nc1ccc2cccc(NC(=O)Nc3ccc(Cl)c(C(F)(F)F)c3)c2c1 [Example 10-1, N-{8-[({[4-Chloro-3-(trifluoromethyl)phenyl]amino}carbonyl)amino]-2-naphthyl}methanesulfonamide]",225 to 226 °C
14,"O=C(Cc1cccc2ccc(O)cc12)Nc1ccc(Cl)c(C(F)(F)F)c1 [Example 11-1, N-[4-Chloro-3-(trifluoromethyl)phenyl]-2-(7-hydroxy-1-naphthyl)acetamide]",162 °C

# Continued, values first:
row,melting point,SMILES
1,226 °C (dec.),CC(=O)Oc1ccc2c(Cl)cc(Cl)c(NC(=O)Nc3ccc(F)c(F)c3)c2c1 [Example 3-14]
2,241 °C,"CCCc1ccc(NC(=O)Nc2c(Cl)cc(Cl)c3ccc(O)cc23)cc1 [Example 4-1, N-(2,4-Dichloro-7-hydroxy-1-naphthyl)-N′-(4-propylphenyl)urea]"
3,228 to 232 °C,O=C(Nc1cccc(-c2ccccc2Cl)c1)Nc1c(Cl)cc(Cl)c2ccc(O)cc12 [Example 4-3]
4,230 °C,O=C(Nc1ccc(Oc2ccc(Cl)cc2)cc1)Nc1c(Cl)cc(Cl)c2ccc(O)cc12 [Example 4-9]
5,253 °C,CC(=O)c1ccc(-c2cccc(NC(=O)Nc3c(Cl)cc(Cl)c4ccc(O)cc34)c2)cc1 [Example 4-10]
6,247 °C (dec.),O=C(Nc1cccc(-c2ccc(C(=O)O)cc2)c1)Nc1c(Cl)cc(Cl)c2ccc(O)cc12 [Example 4-11]
7,239 °C (dec.),Cc1ccc(NC(=O)Nc2c(Cl)cc(Cl)c3ccc(O)cc23)cc1C [Example 4-12]
8,230 °C (dec.),O=C(Nc1ccc(Cc2ccccc2)cc1)Nc1c(Cl)cc(Cl)c2ccc(O)cc12 [Example 4-14]
9,226 °C (dec.),O=C(Nc1cccc(Oc2ccccc2)c1)Nc1c(Cl)cc(Cl)c2ccc(O)cc12 [Example 4-15]
10,298 °C (dec.),O=C(Nc1ccc(F)cc1Cl)Nc1c(Cl)cc(Cl)c2ccc(O)cc12 [Example 4-16]
11,246 °C (dec.),COc1cccc(-c2cccc(NC(=O)Nc3c(Cl)cc(Cl)c4ccc(O)cc34)c2)c1 [Example 4-17]
12,234 °C (dec.),Cc1ccc(-c2cccc(NC(=O)Nc3c(Cl)cc(Cl)c4ccc(O)cc34)c2)cc1Cl [Example 4-18]
13,241 °C (dec.),O=C(Nc1cccc(-c2ccc(Cl)c(F)c2)c1)Nc1c(Cl)cc(Cl)c2ccc(O)cc12 [Example 4-19]
14,> 300 °C,O=C(Nc1ccc2c(c1)CCC2)Nc1c(Cl)cc(Cl)c2ccc(O)cc12 [Example 4-32]
15,290 to 291 °C (dec.),O=C(Nc1ccc2c(c1)C(=O)OC2)Nc1c(Cl)cc(Cl)c2ccc(O)cc12 [Example 4-35]
16,236 °C (dec.),O=C(Nc1ccc2c(c1)C(=O)c1ccccc1-2)Nc1c(Cl)cc(Cl)c2ccc(O)cc12 [Example 4-36]
17,244 °C (dec.),O=C(Nc1ccc(F)c(F)c1)Nc1c(Cl)cc(Cl)c2ccc(O)cc12 [Example 4-38]
18,240 °C (dec.),Cc1cc(NC(=O)Nc2c(Cl)cc(Cl)c3ccc(O)cc23)ccc1Cl [Example 4-39]
19,230 °C (dec.),O=C(Nc1ccc2c(c1)CCCC2=O)Nc1c(Cl)cc(Cl)c2ccc(O)cc12 [Example 4-40]
20,235 to 238 °C (dec.),COc1ccc(NC(=O)Nc2c(Cl)cc(Cl)c3ccc(O)cc23)cc1F [Example 4-41]
21,261 to 264 °C (dec.),Cc1ccc(NC(=O)Nc2c(Cl)cc(Cl)c3ccc(O)cc23)cc1F [Example 4-42]
22,250 to 252 °C (dec.),Cc1cc(NC(=O)Nc2c(Cl)cc(Cl)c3ccc(O)cc23)ccc1F [Example 4-45]

# Target: T1, human VR1 (Homo sapiens, UniProt Q8NER1)
# T1 construct: expressed in transfected cells
# Assay: Capsaicin-induced Ca2+ influx in the human VR1-transfected CHO cell line (Assay 1)
# Type: cell-based
# Details: capsaicin-induced Ca2+ flux; compounds or the salt thereof (e.g., potassium salt); purity about 40 to 90%
# Description: [Measurement of Capsaicin-induced Ca^2+ Influx in the Human VR1-transfected CHO Cell Line] (Assay 1)
# (1) Establishment of the human VR1-CHOluc9aeq cell line
# Human vanilloid receptor (hVR1) cDNA was cloned from libraries of axotomized dorsal root ganglia (WO2000/29577). The cloned hVR1 cDNA was constructed with pcDNA3 vector and transfected into a CHOluc9aeq cell line. The cell line contains aequorin and CRE-luciferase reporter genes as read-out signals. The transfectants were cloned by limiting dilution in selection medium (DMEM/F12 medium (Gibco BRL) supplemented with 10% FCS, 1.4 mM Sodium pyruvate, 20 mM HEPES, 0.15% Sodium bicarbonate, 100 U/ml penicillin, 100 μ/ml streptomycin, 2 mM glutamine, non-essential amino acids and 2 mg/ml G418). Ca^2+ influx was examined in the capsaicin-stimulated clones. […] The human VR1-CHOluc9aeq cells were maintained in the selection medium and passaged every 3-4 days at 1-2.5×10^5 cells/flask ([…])
# (2) Measurement of Ca^2+ influx using FDSS-3000
# Human VR1-CHOluc9aeq cells were suspended in a culture medium which is the same as the selection medium except for G418 and seeded at a density of 1,000 cells per well into 384-well plates (black walled clear-base/Nalge Nunc International). Following the culture for 48 hrs the medium was changed to 2 μM Fluo-3 AM (Molecular Probes) and 0.02% Puronic F-127 in assay buffer (Hank's balanced salt solution (HBSS), 17 mM HEPES (pH7.4), 1 mM Probenecid, 0.1% BSA) and the cells were incubated for 60 min at 25° C. After washing twice with assay buffer the cells were incubated with a test compound or vehicle for 20 min at 25° C. Mobilization of cytoplasmic Ca^2+ was measured by FDSS-3000 (λex=488 nm, λem=540 nm/Hamamatsu Photonics) for 60 sec after the stimulation with 10 nM of capsaicin (Nacalai Tesque). Integral R of the fluorescence changes was calculated in the samples treated with a test compound and vehicle respectively. Inhibitory effect of the compound was calculated by a comparison of the integral R values.
# T1 sequence (Q8NER1 whole entry): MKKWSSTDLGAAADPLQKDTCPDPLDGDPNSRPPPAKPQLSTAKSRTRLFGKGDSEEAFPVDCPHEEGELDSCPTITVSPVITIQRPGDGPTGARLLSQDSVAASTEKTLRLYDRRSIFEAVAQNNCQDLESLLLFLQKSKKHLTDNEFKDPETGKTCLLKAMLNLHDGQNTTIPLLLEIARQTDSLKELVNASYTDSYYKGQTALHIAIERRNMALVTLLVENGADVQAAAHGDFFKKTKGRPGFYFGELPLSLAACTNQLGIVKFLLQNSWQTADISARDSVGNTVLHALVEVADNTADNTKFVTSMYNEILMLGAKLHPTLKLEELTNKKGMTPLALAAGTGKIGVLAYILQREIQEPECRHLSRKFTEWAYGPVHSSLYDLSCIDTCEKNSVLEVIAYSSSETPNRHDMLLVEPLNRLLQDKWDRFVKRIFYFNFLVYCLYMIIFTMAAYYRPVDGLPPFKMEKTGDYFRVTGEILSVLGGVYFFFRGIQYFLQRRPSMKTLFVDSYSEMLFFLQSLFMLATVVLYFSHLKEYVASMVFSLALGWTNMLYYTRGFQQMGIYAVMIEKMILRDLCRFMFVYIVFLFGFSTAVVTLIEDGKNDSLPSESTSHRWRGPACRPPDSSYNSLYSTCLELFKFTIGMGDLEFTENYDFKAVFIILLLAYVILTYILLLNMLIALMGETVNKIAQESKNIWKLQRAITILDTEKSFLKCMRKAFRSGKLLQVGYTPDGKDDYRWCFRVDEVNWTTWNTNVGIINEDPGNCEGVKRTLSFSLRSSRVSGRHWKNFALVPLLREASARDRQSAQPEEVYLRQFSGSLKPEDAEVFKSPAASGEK
row,SMILES,IC50
1,"O=C(Nc1cccc(-c2ccccc2)c1)Nc1c(Cl)ccc2ccc(O)cc12 [N-(1,1′-biphenyl-3-yl)-N′-(2-chloro-7-hydroxy-1-naphthyl)urea]",≤ 0.01 µM
2,"O=C(Nc1cccc(-c2ccccc2)c1)Nc1cccc2ccc(O)cc12 [N-(1,1′-biphenyl-3-yl)-N′-(7-hydroxy-1-naphthyl)urea]",≤ 0.01 µM
3,O=C(Nc1ccc(Cl)c(C(F)(F)F)c1)Nc1c(Cl)ccc2ccc(O)cc12 [N-(2-chloro-7-hydroxy-1-naphthyl)-N′-[4-chloro-3-(trifluoromethyl)phenyl]urea],≤ 0.01 µM
4,"O=C(Nc1cccc(Cl)c1)Nc1c(Br)cc(Br)c2ccc(O)cc12 [N-(3-chlorophenyl)-N′-(2,4-dibromo-7-hydroxy-1-naphthyl)urea]",≤ 0.01 µM
5,O=C(NCc1ccc(Br)cc1)Nc1c(Cl)ccc2ccc(O)cc12 [N-(4-bromobenzyl)-N′-(2-chloro-7-hydroxy-1-naphthyl)urea],≤ 0.01 µM
6,O=C(Nc1cccc(Oc2ccccc2)c1)Nc1cccc2ccc(O)cc12 [N-(7-hydroxy-1-naphthyl)-N′-(3-phenoxyphenyl)urea],≤ 0.01 µM
7,O=C(Nc1ccc(Oc2ccccc2)cc1)Nc1cccc2ccc(O)cc12 [N-(7-hydroxy-1-naphthyl)-N′-(4-phenoxyphenyl)urea],≤ 0.01 µM
8,O=C(Nc1ccc(C(F)(F)F)cc1)Nc1cccc2ccc(O)cc12 [N-(7-hydroxy-1-naphthyl)-N′-[4-(trifluoromethyl)phenyl]urea],≤ 0.01 µM
9,O=C(Nc1ccc(Oc2ccc(Cl)cc2)cc1)Nc1cccc2ccc(O)cc12 [N-[4-(4-chlorophenoxy)phenyl]-N′-(7-hydroxy-1-naphthyl)urea],≤ 0.01 µM

# Continued, values first:
row,IC50,SMILES
1,≤ 0.01 µM,"O=C(Nc1ccc2ccccc2c1)Nc1c(Cl)cc(Cl)c2ccc(O)cc12 [N-(2,4-dichloro-7-hydroxy-1-naphthyl)-N′-(2-naphthyl)urea]"
2,≤ 0.01 µM,"O=C(Nc1cccc(C(F)(F)F)c1)Nc1c(Cl)cc(Cl)c2ccc(O)cc12 [N-(2,4-dichloro-7-hydroxy-1-naphthyl)-N′-[3-(trifluoromethyl)phenyl]urea]"
3,≤ 0.01 µM,"O=C(Nc1ccc(F)c(C(F)(F)F)c1)Nc1c(Cl)cc(Cl)c2ccc(O)cc12 [N-(2,4-dichloro-7-hydroxy-1-naphthyl)-N′-[4-fluoro-3-(trifluoromethyl)phenyl]urea]"
4,≤ 0.01 µM,Cc1cc(Cl)c(NC(=O)Nc2ccc(Cl)c(C(F)(F)F)c2)c2cc(O)ccc12 [N-(2-chloro-7-hydroxy-4-methyl-1-naphthyl)-N′-[4-chloro-3-(trifluoromethyl)phenyl]urea]
5,≤ 0.01 µM,"O=C(Nc1cccc(-c2ccccc2Cl)c1)Nc1c(Cl)cc(Cl)c2ccc(O)cc12 [N-(2′-chloro-1,1′-biphenyl-3-yl)-N′-(2,4-dichloro-7-hydroxy-1-naphthyl)urea]"
6,≤ 0.01 µM,O=C(Nc1ccc(Cl)c(C(F)(F)F)c1)Nc1c(Cl)cc(Br)c2ccc(O)cc12 [N-(4bromo-2-chloro-7-hydroxy-1-naphthyl)N′-[4-chloro-3-(trifluoromethyl)phenyl]urea]
